In US8461378B2, “Purification of fluoroalkanesulfonate salts” (E.I. du Pont de Nemours and Company, priority 2010, dated 2013):

Test: Solubility of TFESK in water and in aqueous K2SO3 solution
Format: physicochemical
Excerpt: Therefore, TFESK was selectively crystallized from sulfite solutions.

With `O=S(=O)([O-])C(F)(F)C(F)F.[K+]` [TFESK, Potassium 1,1,2,2-tetrafluoroethanesulfonate] the “solubility in 2M K2SO3 solution” value (2M K2SO3 solution) was 1-2 % by weight and the solubility in water (water at 0° C.) was 25 % by weight.
